Columns and labels:
[1] = test system: ASH-3 (Thyroid Gland Carcinoma); assay: Bliss excess, mean over the matrix (fraction); higher = more synergy
Outline: (§1)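 Bliss excess equals the observed combination effect minus the expected value EA + EB − EA·EB, where EA and EB are the effects of each agent alone. Combination Emax is the second-highest inhibition within the matrix. Inhibition was scaled from CellTiter-Glo 2.0 luminescence, with 0 set by vehicle wells and 1 by blank wells, after 72 hours of two-drug dosing of cells plated in 1536-well plates.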

[2] = test system: HSC-2 (Oral Cavity Carcinoma); assay: as above
Outline: as §1

[3] = test system: JHH-7 (Hepatocellular Carcinoma); assay: as above
Outline: as §1

[4] = test system: KLE (Endometrial Carcinoma); assay: as above
Outline: as §1

[5] = test system: KP-2 (Pancreatic Carcinoma); assay: as above
Outline: as §1

[6] = test system: NCI-H2347 (Lung Adenocarcinoma); assay: as above
Outline: as §1

[7] = test system: SCC-3 (B-Cell Non-Hodgkin's Lymphoma); assay: as above
Outline: as §1

A704 (Kidney Carcinoma) = assay: combination Emax (second highest fraction inhibited in the dose matrix, 72 h); higher = more inhibition; extreme values may be limits of the assay
Outline: as §1

[8] = test system: EMC-BAC-2 (Non-Small Cell Lung Carcinoma); assay: as above
Outline: as §1

EW-3 (Ewing's Sarcoma) = assay: as above
Outline: as §1

[9] = test system: HSC-2 (Oral Cavity Carcinoma); assay: as above
Outline: as §1

IMR-5 (Neuroblastoma) = assay: as above
Outline: as §1

[10] = test system: KINGS-1 (Low Grade Glioma); assay: as above
Outline: as §1

[11] = test system: KYSE-150 (Esophageal Squamous Cell Carcinoma); assay: as above
Outline: as §1

[12] = test system: KYSE-50 (Esophageal Squamous Cell Carcinoma); assay: as above
Outline: as §1

[13] = test system: LC4-1 (B-Lymphoblastic Leukemia); assay: as above
Outline: as §1

[14] = test system: LOU-NH91 (Squamous Cell Lung Carcinoma); assay: as above
Outline: as §1

[15] = test system: MFE-319 (Endometrial Carcinoma); assay: as above
Outline: as §1

[16] = test system: NCI-N87 (Gastric Carcinoma); assay: as above
Outline: as §1

RPMI-7951 (Melanoma) = assay: as above
Outline: as §1

| Structure (SMILES) | Bliss excess [1] | Bliss excess [2] | Bliss excess [3] | Bliss excess [4] | Bliss excess [5] | Bliss excess [6] | Bliss excess [7] | combination Emax (A704 (Kidney Carcinoma)) | combination Emax [8] | combination Emax (EW-3 (Ewing's Sarcoma)) | combination Emax [9] | combination Emax (IMR-5 (Neuroblastoma)) | combination Emax [10] | combination Emax [11] | combination Emax [12] | combination Emax [13] | combination Emax [14] | combination Emax [15] | combination Emax [16] | combination Emax (RPMI-7951 (Melanoma)) |
| --- | --- | --- | --- | --- | --- | --- | --- | --- | --- | --- | --- | --- | --- | --- | --- | --- | --- | --- | --- | --- |
| CCN(CCO)CCCOc1ccc2c(Nc3cc(CC(=O)Nc4cccc(F)c4)[nH]n3)ncnc2c1 [AZD2811] + O=C(c1cc(Cc2n[nH]c(=O)c3ccccc23)ccc1F)N1CCN(C(=O)C2CC2)CC1 [Olaparib] (first compound max 1 µM, 7x7, partner max 10 µM) | 0.0118 | 0.0524 | 0.0118 | -0.282 | -0.0123 | -0.0303 | 0.0494 | 0.188 | 0.31 | 0.675 | 0.439 | 0.962 | 0.241 | 0.515 | 0.282 | 0.854 | 0.332 | 0.245 | 0.293 | 0.328 |
| COc1cccc(OCCCN)c1-c1cc(Nc2cnc(C#N)cn2)n[nH]1 [Prexasertib] + CCc1c2c(nc3ccc(O)cc13)-c1cc3c(c(=O)n1C2)COC(=O)[C@]3(O)CC [SN-38] (first compound max 1 µM, 7x7, partner max 0.3 µM) | 0.0624 | -0.0507 | 0.116 | 0.0285 | 0.0983 | 0.0217 | 0.0056 | 0.749 | 0.657 | 0.838 | 0.95 | 1 | 0.691 | 0.966 | 0.904 | 0.966 | 0.936 | 0.897 | 0.816 | 0.997 |
| C[C@@H](c1ccc2nccn2c1)n1nnc2ncc(-c3cnn(C)c3)nc21 [Savolitinib] + Cc1c2c(nn1C)CSCc1cc(n(C)n1)CSc1cc(c3ccccc3c1)OCCCc1c(C(=O)O)n(C)c3c-2c(Cl)ccc13 [AZD5991] (first compound max 1 µM, 7x7, partner max 1 µM) | -0.0466 | -0.0493 | -0.0404 | -0.0822 | -0.0468 | -0.0559 | 0.0239 | 0.256 | 0.45 | 0.558 | 0.711 | 0.645 | 0.323 | 0.219 | 0.298 | 0.939 | 0.199 | 0.406 | 0.22 | 0.266 |
| COc1nnc2ccc(N3CCC(c4ccc(OCCN5CCN(C)C(=O)[C@H]5C)cc4)CC3)nn12 [AZD5153] + C=CCn1c(=O)c2cnc(Nc3ccc(N4CCN(C)CC4)cc3)nc2n1-c1cccc(C(C)(C)O)n1 [AZD1775] (first compound max 1 µM, partner max 1 µM) | -0.024 | -0.0167 | -0.0749 | -0.0754 | -0.0288 | 0.0293 | -0.046 | 0.652 | 0.735 | 0.622 | 0.679 | 0.973 | 0.251 | 0.666 | 0.798 | 0.941 | 0.948 | 0.741 | 0.717 | 0.802 |
| Cc1c2c(nn1C)CSCc1cc(n(C)n1)CSc1cc(c3ccccc3c1)OCCCc1c(C(=O)O)n(C)c3c-2c(Cl)ccc13 [AZD5991] + CN(C)CCCOc1ccc(-c2ccc3ncc4c(c3c2)n(C2CCOCC2)c(=O)n4C)cn1 [AZD0156] (first compound max 1 µM, 7x7, partner max 1 µM) | -0.0253 | -0.0089 | -0.0091 | -0.0504 | -0.0125 | -0.0188 | 0.0027 | 0.24 | 0.745 | 0.662 | 0.835 | 0.985 | 0.278 | 0.453 | 0.292 | 0.962 | 0.47 | 0.78 | 0.45 | 0.945 |
| C[C@@H](c1ccc2nccn2c1)n1nnc2ncc(-c3cnn(C)c3)nc21 [Savolitinib] + CC1(C)CCC(CN2CCN(c3ccc(C(=O)NS(=O)(=O)c4ccc(NCC5CCOCC5)c([N+](=O)[O-])c4)c(Oc4cnc5[nH]ccc5c4)c3)CC2)=C(c2ccc(Cl)cc2)C1 [Venetoclax] (first compound max 1 µM, 7x7, partner max 1 µM) | -0.0329 | 0.0064 | -0.0342 | -0.111 | -0.0518 | -0.0848 | -0.0166 | 0.246 | 0.0698 | 0.379 | 0.186 | 0.173 | 0.334 | 0.189 | 0.196 | 1 | 0.135 | 0 | 0.22 | 0.13 |
| NC1(C(=O)N[C@@H](CCO)c2ccc(Cl)cc2)CCN(c2ncnc3[nH]ccc23)CC1 [Capivasertib] + CCN(CCO)CCCOc1ccc2c(Nc3cc(CC(=O)Nc4cccc(F)c4)[nH]n3)ncnc2c1 [AZD2811] (first compound max 10 µM, 7x7, partner max 1 µM) | -0.0147 | 0.0572 | -0.0692 | -0.0611 | -0.0433 | -0.0369 | 0.0443 | 0.324 | 0.564 | 0.595 | 0.707 | 1 | 0.429 | 0.536 | 0.388 | 0.905 | 0.519 | 0.423 | 0.73 | 0.766 |
| CN(CCO)CC[C@H](CSc1ccccc1)Nc1ccc(S(=O)(=O)NC(=O)c2ccc(N3CCC([C@@H](O)c4ccccc4-c4ccc(Cl)cc4)CC3)cc2)cc1S(=O)(=O)C(F)(F)F [AZD4320] + C[C@@H]1COCCN1C2=NC(=NC(=C2)C3(CC3)[S@](=N)(=O)C)C4=C5C=CNC5=NC=C4 [AZD6738] (first compound max 1 µM, 7x7, partner max 10 µM) | -0.0011 | 0.0594 | 0.0174 | -0.0709 | -0.104 | -0.0256 | 0.014 | 0.809 | 0.632 | 0.971 | 0.925 | 1 | 0.53 | 0.614 | 0.686 | 1 | 0.575 | 0.928 | 0.845 | 0.951 |
| CN(CCO)CC[C@H](CSc1ccccc1)Nc1ccc(S(=O)(=O)NC(=O)c2ccc(N3CCC([C@@H](O)c4ccccc4-c4ccc(Cl)cc4)CC3)cc2)cc1S(=O)(=O)C(F)(F)F [AZD4320] + C=CCn1c(=O)c2cnc(Nc3ccc(N4CCN(C)CC4)cc3)nc2n1-c1cccc(C(C)(C)O)n1 [AZD1775] (first compound max 1 µM, partner max 1 µM) | 0.0819 | 0.058 | 0.0362 | 0.0083 | 0.0889 | 0.034 | 0.0329 | 0.781 | 0.425 | 0.962 | 0.639 | 0.983 | 0.526 | 0.432 | 0.476 | 1 | 0.822 | 0.944 | 0.888 | 0.879 |
| Cc1c2c(nn1C)CSCc1cc(n(C)n1)CSc1cc(c3ccccc3c1)OCCCc1c(C(=O)O)n(C)c3c-2c(Cl)ccc13 [AZD5991] + CC1(C)CCC(CN2CCN(c3ccc(C(=O)NS(=O)(=O)c4ccc(NCC5CCOCC5)c([N+](=O)[O-])c4)c(Oc4cnc5[nH]ccc5c4)c3)CC2)=C(c2ccc(Cl)cc2)C1 [Venetoclax] (first compound max 1 µM, 7x7, partner max 1 µM) | -0.038 | 0.0693 | 0.0183 | -0.0505 | 0.0157 | -0.0188 | 0.017 | 0.344 | 0.694 | 0.953 | 0.965 | 0.995 | 0.266 | 0.17 | 0.418 | 1 | 0.221 | 0.881 | 0.23 | 0.903 |
| COc1cccc2c1C(=O)c1c(O)c3c(c(O)c1C2=O)C[C@@](O)(C(=O)CO)C[C@@H]3O[C@H]1C[C@H](N)[C@H](O)[C@H](C)O1 [Doxorubicin] + Cc1cc2ncnn2cc1Nc1ncc2c(n1)n(C1CCOCC1)c(=O)n2C [AZD7648] (first compound max 1 µM, 7x7, partner max 10 µM) | 0.0829 | 0.0891 | 0.0271 | -0.002 | 0.0223 | -0.0486 | 0.158 | 0.176 | 0.829 | 0.788 | 0.89 | 1 | 0.664 | 0.958 | 0.678 | 1 | 0.782 | 0.552 | 0.726 | 0.957 |
| NC1(C(=O)N[C@@H](CCO)c2ccc(Cl)cc2)CCN(c2ncnc3[nH]ccc23)CC1 [Capivasertib] + Cn1cnc2c(F)c(Nc3ccc(Br)cc3Cl)c(C(=O)NOCCO)cc21 [Selumetinib] (first compound max 10 µM, 7x7, partner max 10 µM) | 0.064 | 0.0675 | -0.0455 | -0.011 | 0.0094 | -0.0158 | 0.0627 | 0.434 | 0.622 | 0.24 | 0.721 | 0.168 | 0.597 | 0.743 | 0.298 | 0.575 | 0.487 | 0.644 | 0.755 | 0.793 |
